The supplement of paper PMC10307832

Columns and labels:
Test in all cases: relative viability (nuclei count vs DMSO), 5 days (fraction); higher = more cells survive
[1] = tested on: NCI-H1915
Summary of the method: (§1)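 After 5 days of treatment, lung cancer cells in 1536-well plates were fixed and stained in a single step (final 0.05% Triton X-100, 1% formaldehyde, 1 ug/ml Hoechst) and their nuclei counted on 4× images. Treatment had been applied by pin tool the day after seeding as one drug alone or as a fixed anchor-drug dose with five library-drug doses (not always all listed) in √10 steps. Relative viability is the nuclei count of treated wells divided by that of vehicle wells, and values are medians of duplicate plates.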

[2] = tested on: NCI-H2087
Summary of the method: as §1

[3] = tested on: NCI-H647
Summary of the method: as §1

[4] = tested on: NCI-H650
Summary of the method: as §1

[5] = tested on: NCI-H2126
Summary of the method: as §1

[6] = tested on: NCI-H522
Summary of the method: as §1

[7] = tested on: PC-14
Summary of the method: as §1

[8] = tested on: NCI-H2405
Summary of the method: as §1

[9] = tested on: NCI-H322M
Summary of the method: as §1

[10] = tested on: H3255
Summary of the method: as §1

[11] = tested on: LC-2-ad
Summary of the method: as §1

[12] = tested on: HCC-78
Summary of the method: as §1

[13] = tested on: NCI-H1666
Summary of the method: as §1

[14] = tested on: RERF-LC-KJ
Summary of the method: as §1

[15] = tested on: LCLC-97TM1
Summary of the method: as §1

[16] = tested on: ChaGo-K-1
Summary of the method: as §1

[17] = tested on: 201T
Summary of the method: as §1

[18] = tested on: EPLC-272H
Summary of the method: as §1

[19] = tested on: NCI-H23
Summary of the method: as §1

[20] = tested on: NCI-H2347
Summary of the method: as §1

[21] = tested on: HCC-827
Summary of the method: as §1

Work on `COc1cc(N2CCC(C(N)=O)CC2)ccc1Nc1nc(N)c(Cl)c(Nc2ccccc2S(=O)(=O)C(C)C)n1` [HG-5-88-01] + NC(=O)Nc1cc(-c2cccc(F)c2)sc1C(=O)N[C@H]1CCCNC1 [AZD7762] (partner 0.2 µM) yielded a relative viability ([1]; first compound 0.04 µM) of 0.69, a relative viability ([1]; first compound 0.1265 µM) of 0.697 and a relative viability ([1]; first compound 0.4 µM) of 0.689. The relative viability ([1]; first compound 1.265 µM) was 0.741, the relative viability ([1]; first compound 4 µM) was 0.463 and the relative viability ([2]; first compound 0.04 µM) was 1.23. The relative viability ([2]; first compound 0.1265 µM) was 1.26, the relative viability ([2]; first compound 0.4 µM) was 1.45 and the relative viability ([2]; first compound 1.265 µM) was 1.14. The relative viability ([2]; first compound 4 µM) was 1.17, the relative viability ([3]; first compound 0.04 µM) was 0.455 and the relative viability ([3]; first compound 0.1265 µM) was 0.405. The relative viability ([3]; first compound 0.4 µM) was 0.472, the relative viability ([3]; first compound 1.265 µM) was 0.394 and the relative viability ([3]; first compound 4 µM) was 0.433. For the same molecule, the relative viability ([4]; first compound 0.04 µM) was 1.04, the relative viability ([4]; first compound 0.1265 µM) was 1.07 and the relative viability ([4]; first compound 0.4 µM) was 0.901. The relative viability ([4]; first compound 1.265 µM) was 1.01, the relative viability ([4]; first compound 4 µM) was 0.683 and the relative viability ([5]; first compound 0.04 µM) was 0.985. For the same molecule, the relative viability ([5]; first compound 0.1265 µM) was 1.05, the relative viability ([5]; first compound 0.4 µM) was 0.961 and the relative viability ([5]; first compound 1.265 µM) was 1.05. The relative viability ([5]; first compound 4 µM) was 0.828, the relative viability ([6]; first compound 0.04 µM) was 0.795 and the relative viability ([6]; first compound 0.1265 µM) was 0.842. The relative viability ([6]; first compound 0.4 µM) was 0.779, the relative viability ([6]; first compound 1.265 µM) was 0.846 and the relative viability ([6]; first compound 4 µM) was 0.681. The relative viability ([7]; first compound 0.04 µM) was 0.345, the relative viability ([7]; first compound 0.1265 µM) was 0.315 and the relative viability ([7]; first compound 0.4 µM) was 0.343. The relative viability ([7]; first compound 1.265 µM) was 0.38, the relative viability ([7]; first compound 4 µM) was 0.0818 and the relative viability ([8]; first compound 0.04 µM) was 0.769. For the same molecule, the relative viability ([8]; first compound 0.1265 µM) was 0.659, the relative viability ([8]; first compound 0.4 µM) was 0.569 and the relative viability ([8]; first compound 1.265 µM) was 0.638. For the same molecule, the relative viability ([8]; first compound 4 µM) was 0.504, the relative viability ([9]; first compound 0.04 µM) was 0.665 and the relative viability ([9]; first compound 0.1265 µM) was 0.61. It also gave a relative viability ([9]; first compound 0.4 µM) of 0.465, a relative viability ([9]; first compound 1.265 µM) of 0.454 and a relative viability ([9]; first compound 4 µM) of 0.466. It also gave a relative viability ([10]; first compound 0.04 µM) of 1.16, a relative viability ([10]; first compound 0.1265 µM) of 1.01 and a relative viability ([10]; first compound 0.4 µM) of 0.916. It also gave a relative viability ([10]; first compound 4 µM) of 0.699, a relative viability ([11]; first compound 0.04 µM) of 0.888 and a relative viability ([11]; first compound 0.1265 µM) of 0.76. The relative viability ([11]; first compound 0.4 µM) was 0.787, the relative viability ([11]; first compound 1.265 µM) was 0.857 and the relative viability ([11]; first compound 4 µM) was 0.87. For the same molecule, the relative viability ([12]; first compound 0.04 µM) was 0.576, the relative viability ([12]; first compound 0.1265 µM) was 0.553 and the relative viability ([12]; first compound 0.4 µM) was 0.472. It also gave a relative viability ([12]; first compound 1.265 µM) of 0.361, a relative viability ([12]; first compound 4 µM) of 0.364 and a relative viability ([13]; first compound 0.04 µM) of 0.75. It also gave a relative viability ([13]; first compound 0.1265 µM) of 0.783, a relative viability ([13]; first compound 0.4 µM) of 0.779 and a relative viability ([13]; first compound 1.265 µM) of 0.771. For the same molecule, the relative viability ([13]; first compound 4 µM) was 0.53, the relative viability ([14]; first compound 0.04 µM) was 0.995 and the relative viability ([14]; first compound 0.1265 µM) was 1.07. The relative viability ([14]; first compound 0.4 µM) was 0.979, the relative viability ([14]; first compound 1.265 µM) was 0.747 and the relative viability ([14]; first compound 4 µM) was 0.563. For the same molecule, the relative viability ([15]; first compound 0.04 µM) was 0.251, the relative viability ([15]; first compound 0.1265 µM) was 0.262 and the relative viability ([15]; first compound 0.4 µM) was 0.231. The relative viability ([15]; first compound 1.265 µM) was 0.225, the relative viability ([15]; first compound 4 µM) was 0.0952 and the relative viability ([16]; first compound 0.04 µM) was 0.842. For the same molecule, the relative viability ([16]; first compound 0.1265 µM) was 0.909, the relative viability ([16]; first compound 0.4 µM) was 0.828 and the relative viability ([16]; first compound 1.265 µM) was 0.852. For the same molecule, the relative viability ([16]; first compound 4 µM) was 0.727, the relative viability ([17]; first compound 0.04 µM) was 0.54 and the relative viability ([17]; first compound 0.1265 µM) was 0.62. The relative viability ([17]; first compound 1.265 µM) was 0.631, the relative viability ([17]; first compound 4 µM) was 0.374 and the relative viability ([18]; first compound 0.04 µM) was 0.215. It also gave a relative viability ([18]; first compound 0.1265 µM) of 0.222, a relative viability ([18]; first compound 0.4 µM) of 0.203 and a relative viability ([18]; first compound 1.265 µM) of 0.234. It also gave a relative viability ([18]; first compound 4 µM) of 0.0657, a relative viability ([19]; first compound 0.04 µM) of 0.483 and a relative viability ([19]; first compound 0.1265 µM) of 0.27. For the same molecule, the relative viability ([19]; first compound 0.4 µM) was 0.213, the relative viability ([19]; first compound 1.265 µM) was 0.235 and the relative viability ([19]; first compound 4 µM) was 0.174. It also gave a relative viability ([20]; first compound 0.04 µM) of 0.881, a relative viability ([20]; first compound 0.1265 µM) of 0.9 and a relative viability ([20]; first compound 0.4 µM) of 0.82. For the same molecule, the relative viability ([20]; first compound 1.265 µM) was 0.718, the relative viability ([20]; first compound 4 µM) was 0.804 and the relative viability ([21]; first compound 0.04 µM) was 0.313. The relative viability ([21]; first compound 0.1265 µM) was 0.184, the relative viability ([21]; first compound 0.4 µM) was 0.167 and the relative viability ([21]; first compound 1.265 µM) was 0.129. The relative viability ([21]; first compound 4 µM) was 0.123.
